These results are taken from PubChem BioAssay AID330 (DTP/NCI, 2004).

The test system of the assay is P388 leukemia ip, CD2F1 mice, survival T/C. Kind of assay: NCI In Vivo Anticancer Drug Screen. Data for tumor model P388 Leukemia (intraperitoneal) in CD2F1 (CDF1) mice. As to conditions: endpoint: median survival time, higher = longer survival. In short, it runs like this:
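Mice carrying the transplanted tumor received test compound or vehicle. Survival was recorded in each group, and the value is the treated-group measurement divided by that of the vehicle-treated control group.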

The mark [1] stands for this setting: dose: 50.0 mg/kg/injection, schedule: Q01DX005 (ip), vehicle: Klucel (hydroxypropylcellulose) (HPC).
[2] abbreviates: dose: 100.0 mg/kg/injection, schedule: Q01DX005 (ip), vehicle: Klucel (hydroxypropylcellulose) (HPC).
Setting [3] is: dose: 200.0 mg/kg/injection, schedule: Q01DX005 (ip), vehicle: Klucel (hydroxypropylcellulose) (HPC).
[4] abbreviates: dose: 50.0 mg/kg/injection, schedule: Q01DX009 (ip), vehicle: saline.
Where [5] appears, read: dose: 100.0 mg/kg/injection, schedule: Q01DX009 (ip), vehicle: saline.
The mark [6] stands for this setting: dose: 12.5 mg/kg/injection, schedule: Q01DX009 (ip), vehicle: saline with Tween-80.
Setting [7] is: dose: 25.0 mg/kg/injection, schedule: Q01DX009 (ip), vehicle: saline with Tween-80.
Where [8] appears, read: dose: 50.0 mg/kg/injection, schedule: Q01DX009 (ip), vehicle: saline with Tween-80.
The mark [9] stands for this setting: dose: 100.0 mg/kg/injection, schedule: Q01DX009 (ip), vehicle: saline with Tween-80.
Setting [10] is: dose: 12.5 mg/kg/injection, schedule: Q01DX009 (ip), vehicle: saline.

Where “and” joins values, the source holds several entries; their conditions need not be identical. Equal entries are not always repeated. Toxic doses and inconclusive results are not listed.

For the compound `COc1nc(COC(=O)NC(C)C)c(COC(=O)NC(C)C)n1C`, the T/C is 109 % of control (dose: 12.5 mg/kg/injection, schedule: Q01DX005 (ip), vehicle: Klucel (hydroxypropylcellulose) (HPC)); 118 % of control (dose: 25.0 mg/kg/injection, schedule: Q01DX005 (ip), vehicle: Klucel (hydroxypropylcellulose) (HPC)); 123 % of control under setting [1]; 166 % of control under setting [2]; 189 % of control under setting [3]; 196 % of control (dose: 400.0 mg/kg/injection, schedule: Q01DX005 (ip), vehicle: Klucel (hydroxypropylcellulose) (HPC)).

As for `COC(=O)[C@H](C)[C@@H]1CC[C@](C)(CCC2=C(C)CCCC2(C)C)OO1`, the T/C by setting is: (dose: 4.38 mg/kg/injection, schedule: Q01DX005 (ip), vehicle: saline + Tween-80 + alcohol) 93 % of control; (dose: 8.75 mg/kg/injection, schedule: Q01DX005 (ip), vehicle: saline + Tween-80 + alcohol) 100 % of control; (dose: 17.5 mg/kg/injection, schedule: Q01DX005 (ip), vehicle: saline + Tween-80 + alcohol) 94 % of control; (dose: 35.0 mg/kg/injection, schedule: Q01DX005 (ip), vehicle: saline + Tween-80 + alcohol) 107 % of control.

In the case of `O=C1C2CCCC1C(c1ccc(Cl)cc1)NC2c1ccc(Cl)cc1` (stereo not drawn), the T/C reads like this: (dose: 100.0 mg/kg/injection, schedule: Q04DX003 (ip), vehicle: saline) 103 % of control; (dose: 200.0 mg/kg/injection, schedule: Q04DX003 (ip), vehicle: saline) 103 % of control; (dose: 400.0 mg/kg/injection, schedule: Q04DX003 (ip), vehicle: saline) 96 % of control.

`C=C(C)c1ccc([Si](C)(C)C)cc1`: the T/C by setting is: under setting [4], 104 % of control; under setting [5], 101 % of control; (dose: 200.0 mg/kg/injection, schedule: Q01DX009 (ip), vehicle: saline) 109 % of control.

Turning to `COC1/C=C\OC2(C)Oc3c(C)c(O)c4c(O)c(c5[nH]cnc5c4c3C2=O)NC(=O)/C(C)=C\C=C\C(C)C(O)C(C)C(O)C(C)C(OC(C)=O)C1C` (stereo not drawn), the T/C is, setting by setting: (dose: 25.0 mg/kg/injection, schedule: Q01DX009 (ip), vehicle: Klucel (hydroxypropylcellulose) (HPC)) 102 % of control; (dose: 50.0 mg/kg/injection, schedule: Q01DX009 (ip), vehicle: Klucel (hydroxypropylcellulose) (HPC)) 102 % of control; (dose: 100.0 mg/kg/injection, schedule: Q01DX009 (ip), vehicle: Klucel (hydroxypropylcellulose) (HPC)) 100 % of control; (dose: 200.0 mg/kg/injection, schedule: Q01DX009 (ip), vehicle: Klucel (hydroxypropylcellulose) (HPC)) 108 % of control.

Take `N#Cc1c(SCc2ccc(Cl)cc2)nsc1Nc1ccc(Cl)cc1`: the T/C is, setting by setting: under setting [6], 96 % of control; under setting [7], 91 % of control; under setting [8], 92 % of control.

Turning to `C/C=C/[Se]c1ccccc1`, the T/C runs as follows: (dose: 6.25 mg/kg/injection, schedule: Q01DX009 (ip), vehicle: saline with Tween-80) 103 % of control; under setting [6], 106 % of control; under setting [7], 103 % of control; under setting [9], 105 % of control and 107 % of control and 121 % of control.

In the case of `Nc1[nH]c(=O)[nH]c(=O)c1N=O`, the T/C is 101 % of control and 96 % of control (dose: 60.0 mg/kg/injection, schedule: Q01DX005 (ip), vehicle: Klucel (hydroxypropylcellulose) (HPC)); 101 % of control and 108 % of control (dose: 120.0 mg/kg/injection, schedule: Q01DX005 (ip), vehicle: Klucel (hydroxypropylcellulose) (HPC)); 104 % of control and 98 % of control (dose: 240.0 mg/kg/injection, schedule: Q01DX005 (ip), vehicle: Klucel (hydroxypropylcellulose) (HPC)).

Regarding `CCCCCCC1(/C=C/c2ccc(Cl)c(Cl)c2)SCCS1`, the T/C is 100 % of control (dose: 12.0 mg/kg/injection, schedule: Q01DX009 (ip), vehicle: saline with Tween-80); 105 % of control under setting [10]; 107 % of control under setting [7]; 102 % of control (dose: 25.0 mg/kg/injection, schedule: Q01DX009 (ip), vehicle: saline); 104 % of control under setting [8]; 100 % of control under setting [9]. For the same compound, the T/C under setting [5] was 102 % of control and 90 % of control.

In the case of `Cc1c(S)cnc2ccccc12`, the T/C by setting is: (dose: 50.0 mg/kg/injection, schedule: Q01DX005 (ip), vehicle: saline with Tween-80) 99 % of control; (dose: 100.0 mg/kg/injection, schedule: Q01DX005 (ip), vehicle: saline with Tween-80) 93 % of control.

Take `O=NN(CCCl)C(=O)NC1C2CC3CC(C2)CC1C3` (stereo not drawn): the T/C by setting is: (dose: 1.78 mg/kg/injection, schedule: Q01DX009 (ip), vehicle: other) 118 % of control; (dose: 2.2 mg/kg/injection, schedule: Q04DX003 (ip), vehicle: other) 104 % of control; (dose: 2.66 mg/kg/injection, schedule: Q01DX009 (ip), vehicle: other) 116 % of control; (dose: 3.3 mg/kg/injection, schedule: Q04DX003 (ip), vehicle: other) 118 % of control; (dose: 4.0 mg/kg/injection, schedule: Q01DX009 (ip), vehicle: other) 169 % of control; (dose: 6.0 mg/kg/injection, schedule: Q01DX009 (ip), vehicle: other) 225 % of control. Besides, the T/C (dose: 7.5 mg/kg/injection, schedule: Q04DX003 (ip), vehicle: other) is 177 % of control; the T/C (dose: 12.5 mg/kg/injection, schedule: Q04DX003 (ip), vehicle: other) was 180 % of control; the T/C (dose: 25.0 mg/kg/injection, schedule: Q04DX003 (ip), vehicle: other) was 300 % of control; the T/C (dose: 50.0 mg/kg/injection, schedule: Q04DX003 (ip), vehicle: other) was 300 % of control; the T/C (dose: 100.0 mg/kg/injection, schedule: Q04DX003 (ip), vehicle: other) is 105 % of control.

Turning to `Cc1ccc2[nH]c3c(c2c1)C(=O)CCC3`, the T/C reads like this: under setting [1], 97 % of control; under setting [2], 95 % of control; under setting [3], 92 % of control.

Consider `COC(=O)C1c2c(C)cc3n2C(C=CC3)C1C(=O)OC` (stereo not drawn), for which the T/C is 94 % of control (dose: 100.0 mg/kg/injection, schedule: Q04DX003 (ip), vehicle: Klucel (hydroxypropylcellulose) (HPC)); 93 % of control (dose: 200.0 mg/kg/injection, schedule: Q04DX003 (ip), vehicle: Klucel (hydroxypropylcellulose) (HPC)); 101 % of control (dose: 400.0 mg/kg/injection, schedule: Q04DX003 (ip), vehicle: Klucel (hydroxypropylcellulose) (HPC)).

For the compound `OCCSc1c(Cl)c(Cl)c(Cl)c(Cl)c1Cl`, the T/C is 106 % of control under setting [9] and 113 % of control (dose: 200.0 mg/kg/injection, schedule: Q01DX009 (ip), vehicle: saline with Tween-80).

For the compound `Cc1ccc(/C=N/NC(=O)C(=O)Nc2ccc(Cl)c([N+](=O)[O-])c2)cc1`, the T/C is 88 % of control (dose: 6.25 mg/kg/injection, schedule: Q01DX005 (ip), vehicle: saline with Tween-80) and 95 % of control (dose: 12.5 mg/kg/injection, schedule: Q01DX005 (ip), vehicle: saline with Tween-80).

Turning to `Cc1ccc(C2=Nc3ccccc3SC(c3cccc([N+](=O)[O-])c3)C2)cc1` (stereo not drawn), the T/C is, setting by setting: (dose: 3.12 mg/kg/injection, schedule: Q01DX009 (ip), vehicle: saline) 90 % of control; (dose: 6.25 mg/kg/injection, schedule: Q01DX009 (ip), vehicle: saline) 97 % of control; under setting [10], 88 % of control; under setting [4], 86 % of control.

With `CC[N+](CC)(CC)c1ccccc1`, the T/C runs as follows: (dose: 6.25 mg/kg/injection, schedule: Q04DX002 (ip), vehicle: saline) 105 % of control; (dose: 12.5 mg/kg/injection, schedule: Q04DX002 (ip), vehicle: saline) 111 % of control; (dose: 25.0 mg/kg/injection, schedule: Q04DX002 (ip), vehicle: saline) 100 % of control and 104 % of control.

For the compound `OCc1c(-c2ccccc2)nc2n1CCS2`, the T/C by setting is: (dose: 100.0 mg/kg/injection, schedule: Q01DX001 (ip), vehicle: Klucel (hydroxypropylcellulose) (HPC)) 102 % of control; (dose: 200.0 mg/kg/injection, schedule: Q01DX001 (ip), vehicle: Klucel (hydroxypropylcellulose) (HPC)) 102 % of control; (dose: 400.0 mg/kg/injection, schedule: Q01DX001 (ip), vehicle: Klucel (hydroxypropylcellulose) (HPC)) 98 % of control.

Turning to `CCOC(=O)OCC1=Nc2cccc3cccc(c23)N1`, the T/C under setting [1] was 100 % of control, the T/C under setting [2] was 110 % of control and the T/C under setting [3] is 108 % of control.
